# Test results: patent publication US4278687A, “Inhibition of biosynthesis of triglycerides by certain N-β-phenethyl-N-thienylalkylamines” (Shell Oil Company, priority 1980, dated 1981)
# Test system: enzyme from pig adipose tissue (synthesis of triglycerides)
# Assay: Inhibition of triglyceride synthesis by enzyme preparation from pig adipose tissue (14C-glycerol-3-phosphate incorporation)
# Assay type: biochemical
# Conditions: test compound 1000 micrograms per milliliter, 5% DMSO, 8 minutes at 37° C; compared to controls without test compound; average of two animals
# Protocol: An enzyme was prepared by homogenizing one gram of slices from pig adipose tissue, each slice being approximately 0.3 mm thick, in one-milliliter portions of a liquid medium (Liquid A). The homogenate then was centrifuged (10.000 g×15 minutes), and the supernatant phase (the enzyme) was poured through cheesecloth to remove fat that had risen to the top of the centrifuge tubes.
# Liquid A had the following composition (in water):
# 0.15 M potassium chloride, 1 mM ethylenediaminetetracetic acid, […] Hepes (N-2-hydroxyethylpiperazine-N'-2-ethanesulfonic acid), 1 mM DTT (dithiothreitol), pH=7.0.
# A solution of the test compound (Liquid B) was prepared: 10 milligrams of test compound plus 0.5 milliliter dimethylsulfoxide (DMSO) plus 1.83 milliliters of glass-distilled water.
# A premix (Liquid C) was freshly prepared before each test, from the following components:
# 0.163 milliliter of Liquid B (containing the test compound, or for comparison omitting the test compound) was mixed with 0.1 milliliter of Liquid C, 0.05 milliliter of a solution of L-[U-^14 C] glycerol-3-phosphate (containing 5 microcuries of ^14 C per milliliter), 0.01 milliliter of 0.8 M potassium phosphate (pH=7.4), 0.07 milliliter of 0.2 M glycerol-3-phosphate (pH=7.4) and 0.047 milliliter of water. 0.25 milliliter of enzyme then was added. The final concentrations of DMSO and test compound were 5% and 1000 micrograms per milliliter, respectively. The mixture was incubated for 8 minutes at 37° C. A blank control without enzyme was incubated under the same conditions. Then, 3 milliliters of a 1:2 (v/v) mixture of chloroform and methanol was added and thoroughly mixed to terminate the reaction. After 10 minutes, 2 milliliters of chloroform and 1 milliliter of 0.1 N hydrochloric acid were added to the stirred mixture. The mixture was then centrifuged (275 g) for 5 minutes at room temperature. The top layer of the sample was siphoned off. Two milliliters of 0.1 N hydrochloric acid in 50% methanol/water was added, the mixture was centrifuged (275 g) and the top layer was carefully siphoned off. The resulting liquid (the chloroform phase) was transferred to a liquid scintillation vial and air dried. Ten milliliters of a 2:1 (v/v) mixture of toluene and Triton X-100 containing 0.27% New England Nuclear Omnifluor was added, and the radioactivity was determined in a liquid scintillation counter.
# Three replicates (samples of enzyme) were conducted per experiment (per animal). The results were reported as the average of the values obtained from the adipose tissue from two experiments (i.e., two different animals).
# The percent inhibition by the test compound compared to the controls (no test compound) was determined.
row,Structure (SMILES),Percent Inhibition
1,"CC(NCCC(c1ccccc1)c1ccsc1)C(O)c1ccccc1.Cl (stereo not drawn) [Compound 1, alpha-(1-(3-phenyl-3-(3-thienyl)propylamino)ethyl)-benzenemethanol, hydrochloride]",94
2,"Cl.OC(CNCC=C(c1ccsc1)c1ccsc1)c1cccc(C(F)(F)F)c1 (stereo not drawn) [Compound 2, alpha-((3,3-di-3-thienyl-2-propenylamino)methyl)-3-(trifluoromethyl)benzenemethanol, hydrochloride]",101
3,"CC(NCC=C(c1ccsc1)c1ccsc1)C(O)c1ccccc1.Cl (stereo not drawn) [Compound 3, alpha-(1-(3,3-di-3-thienyl-2-propenylamino)ethyl)-benzenemethanol, hydrochloride]",97
4,"Cl.OC(CNCCC(O)(c1ccccc1)c1ccsc1)c1ccc(Cl)cc1 (stereo not drawn) [Compound 4, alpha-(2-(2-(4-chlorophenyl)-2-hydroxyethylamino)-ethyl)-alpha-phenyl-3-thiophenemethanol, hydrochloride]",94
5,"CC(C)c1ccc(C(=CCNC(C)C(O)c2ccccc2)c2ccsc2)cc1.Cl (stereo not drawn) [Compound 5, alpha-(1-(3-(4-(1-methylethyl)-phenyl)-3-(3-thienyl)-2-propenylamino)ethyl)benzenemethanol, hydrochloride]",96
